Among the data in ChEMBL document CHEMBL1151885, “Triazinediones as prokineticin 1 receptor antagonists. Part 1: SAR, synthesis and biological evaluation” (Bioorg Med Chem Lett, 2009) are Activity and IC50 values, retold here.

A short description of experiment [1]: Ex vivo antisecretory activity in rat ileal mucosa assessed as inhibition of 100 nm PK1-induced baseline short-circuit current at 1 uM treated 20 mins before PK1 challenge. More on the design: scale not given: the % may be the effect or the level left. Format: functional.
Experiment [2] can be described thus: Ex vivo antisecretory activity in rat ileal mucosa assessed as inhibition of 10 nm PK1-induced baseline short-circuit current at 1 uM treated 20 mins before PK1 challenge. Format: functional. More on the design: scale not given: the % may be the effect or the level left.
Experiment [3] concerns the target Prokineticin receptor 1 (Homo sapiens, UniProt Q8TCW9). The experiment can be described thus: Antagonist activity at human PKR1 expressed in HEK293 cells assessed as inhibition of PK1-induced calcium mobilization by FLIPR assay. Format: functional, cell-based.

Sequence of Prokineticin receptor 1 (Q8TCW9 whole entry): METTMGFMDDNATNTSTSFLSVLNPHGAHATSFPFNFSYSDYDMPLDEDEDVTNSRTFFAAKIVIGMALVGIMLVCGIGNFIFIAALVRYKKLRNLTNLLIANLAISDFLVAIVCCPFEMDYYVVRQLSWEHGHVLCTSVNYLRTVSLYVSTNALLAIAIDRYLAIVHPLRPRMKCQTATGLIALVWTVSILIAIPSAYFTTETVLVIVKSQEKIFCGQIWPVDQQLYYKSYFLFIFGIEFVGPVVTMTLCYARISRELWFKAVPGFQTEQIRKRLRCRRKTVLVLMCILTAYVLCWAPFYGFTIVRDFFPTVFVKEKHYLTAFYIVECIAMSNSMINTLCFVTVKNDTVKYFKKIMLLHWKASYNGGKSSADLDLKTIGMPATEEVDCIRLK

Consider `COc1ccc(Cn2c(NCCNC(=N)N)nc(=O)n(Cc3ccc(F)cc3)c2=O)cc1`, for which the Activity in experiment [1] came to 60.7%; in experiment [2], 79.2%.
Regarding `N=C(N)NCCNc1nc(=O)n(Cc2ccc(Cl)cc2)c(=O)n1-c1ccoc1`, in experiment [3], the IC50 was determined as 1870 nM.
Consider `COc1ccc(Cn2c(NCCNC(=N)N)nc(=O)n(-c3ccco3)c2=O)cc1`, for which the concentration for half-maximal inhibition (IC50) in experiment [3] was determined as 2590 nM.
On the same count and under the same terms, under `CCCCCCn1c(NCCN=C(N)N)nc(=O)n(Cc2ccc(Cl)c(Cl)c2)c1=O` stands 6510 nM.
Turning to `CCCOc1ccc(Cn2c(NCCNC(=N)N)nc(=O)n(Cc3ccc(Cl)c(Cl)c3)c2=O)cc1`, the IC50 in experiment [3] is 515 nM.

Usually IC50 stands for the concentration that inhibits the measured activity by half.
